In brackets after ≈: the same amount, converted by molar mass. Values belong to the molecule of their own block, whether it stands above or below them. *1 amine or outer side, *2 acyl side, *3 side chain or, on linkers, in order; H or OH if unused. Where a SMILES comes first, the peptide text is derived from it. Bridges are numbered along the chain shown (N, C = ends). [ ]: non-standard residue; d: D form. The star is where a group is joined. Palmitoyl(16-(5-tetrazolyl)) = O=C(CCCCCCCCCCCCCCCc1nnn[nH]1)*; C18 diacid = O=C(O)CCCCCCCCCCCCCCCCC(=O)*; C16 diacid = O=C(O)CCCCCCCCCCCCCCC(=O)*; γGlu = O=C(O)[C@H](CCC(=O)[*:2])N[*:1]; Hyp = O=C(O)[C@@H]1C[C@@H](O)CN1; NTA = O=C(O)CN(CC(=O)O)CC(=O)*; Nle = CCCC[C@H](N)C(=O)O; Dap = NC[C@H](N)C(=O)O; AEEA = NCCOCCOCC(=O)O
Key:
[1] = biological target: T1, MC1 receptor (Homo sapiens, UniProt Q01726); experiment: Assay (IV) Melanocortin Receptor 1 (MC1) binding assay; conditions: 125NDP-α-MSH binding, BHK cell membranes; read-out: Assay (IV) MC1 Ki
T1 construct: expressed in transfected cells
Outline: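 Competition binding used BHK cell membranes stably expressing MC1 (25 μg/ml) with 22 pM final ^125NDP-α-MSH in 25 mM HEPES pH 7.4, CaCl2, MgSO4, EDTA, 0.1% HSA (or ovalbumin), 0.005% Tween 20. After 90 min at 30° C., bound radioligand was filtered and counted, with binding curves fitted by non-linear regression.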

[2] = biological target: T2, human MC4 receptor (Homo sapiens, UniProt P32245); experiment: Assay (V) Melanocortin Receptor 4 (MC4) binding assay; conditions: 125NDP-α-MSH binding, BHK cell membranes; read-out: Assay (V) MC4 [Ki]
T2 construct: expressed in transfected cells
Outline: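 BHK membranes stably expressing human MC4 receptor were incubated with ^125NDP-α-MSH (≈79 pM final) and compound for 2 h at 25 °C, pH 7.0 HEPES buffer with HSA or ovalbumin. Filter-bound radioactivity was gamma counted. Binding curves were fitted by non-linear regression.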

[3] = tested on: ad libitum fed rat model; experiment: Assay (I) efficacy testing on appetite, ad libitum fed rat model; format: in vivo; conditions: dosing 1 mg/kg
Description: Assay (I)—Experimental protocol for efficacy testing on appetite with MC4 analogues, using an ad libitum fed rat model. TAC:SPRD @mol rats or Wistar rats from M&B Breeding and Research Centre A/S, Denmark are used for the experiments. The rats have a body weight 200-250 g at the start of experiment. The rats arrive at least 10-14 days before start of experiment with a body weight of 180-200 g. Each dose of compound is tested in a group of 8 rats. […] When the animals arrive they are housed individually in a reversed light/dark phase (lights off 7:30 am, lights on 7:30 pm), meaning that lights are off during daytime and on during nighttime. […] During this period the animals are handled at least 3 times. The experiment is conducted in the rats' home cages. Immediately before dosing the rats are randomised to the various treatment groups (n 8) by body weight. They are dosed according to body weight at between 7:00 am and 7:45 am, with a 1-3 mg/kg solution administered intraperitoneally (ip), orally (po) or subcutaneously (sc). The time of dosing is recorded for each group. After dosing, the rats are returned to their home cages, where they then have access to food and water. […] At the end of the experimental session, the animals are euthanised. The individual data are recorded in Microsoft excel sheets. Outliers are excluded after applying the Grubbs statistical evaluation test for outliers, and the result is presented graphically using the GraphPad Prism program.

[4] = Solubility data of compounds in water over the pH range; format: physicochemical

T2 sequence (P32245 whole entry): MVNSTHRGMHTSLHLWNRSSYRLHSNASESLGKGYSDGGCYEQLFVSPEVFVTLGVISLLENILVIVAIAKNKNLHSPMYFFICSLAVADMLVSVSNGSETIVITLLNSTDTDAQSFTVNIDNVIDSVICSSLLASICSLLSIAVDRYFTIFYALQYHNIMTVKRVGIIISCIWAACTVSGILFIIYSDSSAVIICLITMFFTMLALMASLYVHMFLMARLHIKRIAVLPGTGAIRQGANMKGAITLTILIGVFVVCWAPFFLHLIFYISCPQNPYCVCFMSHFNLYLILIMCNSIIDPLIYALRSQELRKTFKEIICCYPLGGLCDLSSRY
T1 sequence (Q01726 whole entry): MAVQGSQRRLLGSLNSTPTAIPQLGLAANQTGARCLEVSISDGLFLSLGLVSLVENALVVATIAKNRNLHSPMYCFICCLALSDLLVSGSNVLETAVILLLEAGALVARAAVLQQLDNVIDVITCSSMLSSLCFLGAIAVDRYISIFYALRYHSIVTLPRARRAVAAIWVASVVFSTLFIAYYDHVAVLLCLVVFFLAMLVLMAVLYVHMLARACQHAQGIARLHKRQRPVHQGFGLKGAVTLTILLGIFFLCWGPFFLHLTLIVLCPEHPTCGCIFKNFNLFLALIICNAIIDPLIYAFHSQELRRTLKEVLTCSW

Compound: CCCC[C@H](NC(=O)[C@H](CCCCNC(=O)CN(CC(=O)O)CC(=O)O)NC(=O)[C@H](CO)NC(=O)[C@H](CCC(N)=O)NC(=O)[C@H](CO)NC(=O)CNC(=O)COCCOCCNC(=O)CCCCCCCCCCCCCCCc1nnn[nH]1)C(=O)N[C@H]1CCC(=O)NCCCC[C@@H](C(N)=O)NC(=O)[C@H](Cc2c[nH]c3ccccc23)NC(=O)[C@H](CCCNC(=N)N)NC(=O)[C@@H](Cc2ccccc2)NC(=O)[C@@H]2C[C@@H](O)CN2C1=O [Example 15, (2-{2-[16-(Tetrazol-5-yl)hexadecanoylamino]ethoxy}ethoxy)acetyl-Gly-Ser-Gln-Ser-Lys(BCMA)-Nle-c[Glu-Hyp-D-Phe-Arg-Trp-Lys]-NH2] ({Palmitoyl(16-(5-tetrazolyl))-AEEA}-GSQSK(NTA)[Nle]E[Hyp][dF]RWK-NH2; lactam 7-12)
- Ki [1]: > 10000 nM
- Ki [2]: 3.15 nM
- Food consumption (% of vehicle) 24 h ([3]; 24 h): 74 % of vehicle
- Food consumption (% of vehicle) 48 h ([3]; 48 h): 85 % of vehicle

- Ki [1]: > 10000 nM
- solubility at 3 days ([4]; pH 3.7): 391 µM (≈ 921 µg/mL)
- solubility at 3 days ([4]; pH 5.2): 25 µM (≈ 58.9 µg/mL)
- solubility at 3 days ([4]; pH 5.96): 78 µM (≈ 184 µg/mL)
- solubility at 3 days ([4]; pH 6.56): 249 µM (≈ 587 µg/mL)
- solubility at 3 days ([4]; pH 6.73): 342 µM (≈ 806 µg/mL)
- solubility at 3 days ([4]; pH 6.95): 382 µM (≈ 900 µg/mL)
- solubility at 3 days ([4]; pH 7.07): 485 µM (≈ 1140 µg/mL)
- solubility at 3 days ([4]; pH 7.51): 498 µM (≈ 1170 µg/mL)
- Ki [2]: 5.35 nM
Compound: CCCC[C@H](NC(=O)[C@H](CNC(=O)CN(CC(=O)O)CC(=O)O)NC(=O)[C@H](Cc1c[nH]cn1)NC(=O)[C@H](CCC(N)=O)NC(=O)[C@H](CO)NC(=O)CNC(=O)COCCOCCNC(=O)COCCOCCNC(=O)CC[C@H](NC(=O)CCCCCCCCCCCCCCCCC(=O)O)C(=O)O)C(=O)N[C@H]1CCC(=O)NCCCC[C@@H](C(N)=O)NC(=O)[C@H](Cc2c[nH]c3ccccc23)NC(=O)[C@H](CCCNC(=N)N)NC(=O)[C@@H](Cc2ccccc2)NC(=O)[C@@H]2C[C@@H](O)CN2C1=O [Example 18, (2-{2-[2-(2-{2-[(S)-4-Carboxy-4-(17-carboxyheptadecanoylamino)butanoylamino]ethoxy}ethoxy)acetylamino]ethoxy}ethoxy)acetyl-Gly-Ser-Gln-His-Dap(BCMA)-Nle-c[Glu-Hyp-D-Phe-Arg-Trp-Lys]-NH2] ({C18 diacid-γGlu-AEEA-AEEA}-GSQH[Dap](NTA)[Nle]E[Hyp][dF]RWK-NH2; lactam 7-12)

- Ki [1]: > 10000 nM
- solubility at 3 days ([4]; pH 4.04): 26 µM (≈ 53.2 µg/mL)
- solubility at 3 days ([4]; pH 4.34): 32 µM (≈ 65.5 µg/mL)
- solubility at 3 days ([4]; pH 4.74): 40 µM (≈ 81.9 µg/mL)
- solubility at 3 days ([4]; pH 5.21): 58 µM (≈ 119 µg/mL)
- solubility at 3 days ([4]; pH 5.67): 103 µM (≈ 211 µg/mL)
- solubility at 3 days ([4]; pH 6.26): 108 µM (≈ 221 µg/mL)
- solubility at 3 days ([4]; pH 6.29): 106 µM (≈ 217 µg/mL)
- solubility at 3 days ([4]; pH 6.87): 117 µM (≈ 239 µg/mL)
- solubility at 3 days ([4]; pH 7.6): 116 µM (≈ 237 µg/mL)
- solubility at 3 days ([4]; pH 7.61): 107 µM (≈ 219 µg/mL)
- Ki [2]: 14.7 nM
Compound: CCCC[C@H](NC(=O)[C@H](CCCCNC(=O)CN(CC(=O)O)CC(=O)O)NC(=O)[C@H](CO)NC(=O)[C@H](CCC(N)=O)NC(=O)[C@H](CO)NC(=O)CNC(=O)COCCOCCNC(=O)CCCCCCCCCCCCCCC(=O)O)C(=O)N[C@H]1CCC(=O)NCCCC[C@@H](C(N)=O)NC(=O)[C@H](Cc2c[nH]c3ccccc23)NC(=O)[C@H](CCCNC(=N)N)NC(=O)[C@@H](Cc2ccccc2)NC(=O)[C@@H]2C[C@@H](O)CN2C1=O [Example 21, {2-[2-(15-Carboxypentadecanoylamino)ethoxy]ethoxy}acetyl-Gly-Ser-Gln-Ser-Lys(BCMA)-Nle-c[Glu-Hyp-D-Phe-Arg-Trp-Lys]-NH2] ({C16 diacid-AEEA}-GSQSK(NTA)[Nle]E[Hyp][dF]RWK-NH2; lactam 7-12)

Source: patent publication US20100173835A1, “Peptides for Treatment of Obesity” (Novo Nordisk A/S, priority 2008, published 2010)
